Results as given in ChEMBL document CHEMBL1201862, “PubChem BioAssay data set” (2004).
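Test compounds were applied to cells in 96-well plates for 48 hours at 5 doses. GI50: concentration for 50% inhibition of growth.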 Active and inactive are the calls of the source. No stated cut-off is given here; in the data, active = GI50 up to about 1.1 µM and inactive = higher.

Key:
Experiment in all cases: DTP human tumour cell line panel, 48 h
[1] = test system: SNB-19
[2] = test system: NCI-H23
[3] = test system: COLO 205
[4] = test system: NCI-H226
[5] = test system: ACHN
[6] = test system: SK-OV-3
[7] = test system: NCI-H460
[8] = test system: TK-10
[9] = test system: HT-29
[10] = test system: M14
[11] = test system: RXF 393
[12] = test system: LOX IMVI
[13] = test system: SK-MEL-5
[14] = test system: DU-145
[15] = test system: HCT-116
[16] = test system: MDA-N
[17] = test system: A498
[18] = test system: UACC-257
[19] = test system: NCI/ADR-RES
[20] = test system: LXFL 529

Measured: GI50

COC(=O)c1ccc(C)cc1C1CN=NC12Cc1cc(C)ccc1C2=O (centres undefined)
inactive: [1] 18.8 µM | [2] 18.1 µM | [3] 6.44 µM | [4] 21.2 µM | [5] 28.1 µM | [6] 23.2 µM | [7] 27.5 µM | [8] 22.8 µM | [9] 3.32 µM | [10] 9.31 µM | [11] 13.8 µM | [12] 10.4 µM | [13] 8.28 µM | [14] 34 µM | [15] 7.64 µM | [16] 2.37 µM | [17] 12.1 µM | [18] 17.7 µM | [19] 6.64 µM

COC(=O)c1sc(=O)sc1SCc1cccc(CSc2sc(=O)sc2C(=O)OC)c1
inactive: [1] 22.3 µM | [2] 52.6 µM | [3] > 100 µM | [4] 61.4 µM | [5] 30 µM | [6] 22.7 µM | [7] 35.1 µM | [8] 23.2 µM | [9] > 100 µM | [10] 36.4 µM | [11] 26 µM | [12] > 100 µM | [13] > 100 µM | [14] 92.3 µM | [15] 56.1 µM | [16] 68.9 µM | [17] 36.1 µM | [18] 70.5 µM | [19] 62.4 µM

CC(C)=CC(=O)c1[nH]c2ccccc2c1CC(=O)NCCc1cncn1C
inactive: [1] 93.8 µM | [2] 51.1 µM | [3] 21.9 µM | [4] 88.3 µM | [5] 66.4 µM | [6] > 100 µM | [7] 52.6 µM | [8] 58.7 µM | [9] 35.7 µM | [10] 72.3 µM | [11] 29.6 µM | [12] 55.5 µM | [13] 94.8 µM | [14] 32.5 µM | [15] 67.9 µM | [16] 50.7 µM | [17] 30 µM | [18] 52.6 µM | [19] > 100 µM

CCCCCCCCCC(=O)CC(=O)c1ccc(O)cc1O
inactive: [1] 37 µM | [2] 25.6 µM | [3] > 100 µM | [20] 30.5 µM | [4] 24.3 µM | [5] 28.6 µM | [6] > 100 µM | [7] 31.8 µM | [8] 40.8 µM | [9] 35.9 µM | [10] 22.1 µM | [11] 28.4 µM | [12] 17.5 µM | [13] 17.6 µM | [15] 26.1 µM | [18] 28.8 µM

COC(OC)C1OC(CO)C(n2ccc(N)nc2=O)C1O (centres undefined)
inactive: [1] > 100 µM | [2] > 100 µM | [3] > 100 µM | [4] > 100 µM | [5] > 100 µM | [6] > 100 µM | [7] > 100 µM | [8] > 100 µM | [9] > 100 µM | [10] > 100 µM | [11] > 100 µM | [12] > 100 µM | [13] > 100 µM | [14] > 100 µM | [15] > 100 µM | [16] > 100 µM | [17] > 100 µM | [18] > 100 µM | [19] > 100 µM

O=C(NCCNCCO)N/N=C/c1ccccc1
inactive: [1] > 100 µM | [2] > 100 µM | [20] > 100 µM | [4] > 100 µM | [5] > 100 µM | [6] > 100 µM | [7] > 100 µM | [8] > 100 µM | [9] > 100 µM | [10] > 100 µM | [11] > 100 µM | [12] > 100 µM | [13] > 100 µM | [15] > 100 µM | [18] > 100 µM

Nc1nc(N)c(-c2ccccc2)c(CCC(=O)Nc2ccc(Cl)cc2)n1
inactive: [1] > 100 µM | [2] > 100 µM | [3] > 100 µM | [20] > 100 µM | [4] > 100 µM | [5] > 100 µM | [6] > 100 µM | [7] > 100 µM | [8] > 100 µM | [9] > 100 µM | [10] > 100 µM | [13] > 100 µM | [15] > 100 µM | [17] > 100 µM | [18] > 100 µM

O=c1cccccc1NCCNc1cccccc1=O
inactive: [1] > 100 µM | [2] > 100 µM | [3] > 100 µM | [20] > 100 µM | [4] > 100 µM | [5] > 100 µM | [6] > 100 µM | [7] > 100 µM | [9] > 100 µM | [10] > 100 µM | [11] 68.2 µM | [12] > 100 µM | [15] > 100 µM | [18] > 100 µM

CC1(C)CC(=O)C2=C(C1)C(c1ccccc1Cl)C1C(=O)CC(C)(C)CC1(O)O2 (centres undefined)
inactive: [1] > 100 µM | [2] > 100 µM | [3] > 31.6 µM | [4] > 100 µM | [5] > 100 µM | [6] > 100 µM | [7] > 100 µM | [8] > 100 µM | [9] > 100 µM | [10] 98.2 µM | [11] > 100 µM | [12] > 68.2 µM | [13] 64.1 µM | [14] > 100 µM | [15] 26.9 µM | [16] 19.6 µM | [17] > 100 µM | [18] > 49.9 µM | [19] > 89.1 µM

CC(C)C(NC(=O)C(Cc1ccccc1)NC(=O)[C@H]1CCC[C@H]1NC(=O)C(N)Cc1ccc(O)cc1)C(N)=O (some centres undefined)
inactive: [1] > 100 µM | [2] > 100 µM | [3] > 100 µM | [4] > 100 µM | [5] > 100 µM | [6] > 100 µM | [7] > 100 µM | [8] > 100 µM | [9] > 100 µM | [10] > 100 µM | [11] > 100 µM | [12] > 100 µM | [13] 17.8 µM | [14] > 100 µM | [15] > 100 µM | [16] > 100 µM | [17] > 100 µM | [18] > 100 µM | [19] > 100 µM

C[C@H]1CC[C@@H]2[C@@H](C)[C@H]3[C@H](C[C@H]4[C@@H]5CC=C6C[C@@H](O)CC[C@]6(C)[C@H]5C[C@H](O)[C@]34C)N2C1
inactive: [1] > 100 µM | [2] > 100 µM | [3] > 100 µM | [4] > 100 µM | [5] > 100 µM | [6] > 100 µM | [7] > 100 µM | [8] > 100 µM | [9] > 100 µM | [10] > 100 µM | [11] > 100 µM | [12] > 100 µM | [13] > 100 µM | [14] > 100 µM | [15] > 100 µM | [16] > 100 µM | [17] > 100 µM | [18] > 100 µM | [19] > 100 µM

OCc1ccc(C2CC(c3ccco3)=NN2c2ccccc2)o1 (centres undefined)
inactive: [1] > 100 µM | [2] > 100 µM | [3] > 100 µM | [20] > 100 µM | [4] > 100 µM | [5] > 100 µM | [7] > 100 µM | [8] > 100 µM | [9] > 100 µM | [10] > 100 µM | [11] > 100 µM | [12] > 100 µM | [13] > 100 µM | [15] > 100 µM

COc1ccc2nc(N/N=C/c3sccc3C)cc(C)c2c1
inactive: [1] 29 µM | [2] 10.1 µM | [3] 13.6 µM | [4] 18.8 µM | [5] 16.3 µM | [6] 13.2 µM | [7] 13.2 µM | [8] 12 µM | [9] 8.67 µM | [10] 11.9 µM | [11] 19.1 µM | [12] 15.6 µM | [13] 12.9 µM | [14] 19.4 µM | [15] 11.6 µM | [16] 16.5 µM | [17] 12.2 µM | [18] 17 µM | [19] 21.6 µM

COc1cc2ccc3c4cc(OC)c(OC(C)C)cc4cnc3c2cc1OC
inactive: [1] > 100 µM | [2] > 100 µM | [3] > 100 µM | [20] > 100 µM | [4] > 100 µM | [5] > 100 µM | [6] > 100 µM | [7] > 100 µM | [8] > 100 µM | [9] > 100 µM | [10] > 100 µM | [11] > 100 µM | [12] > 100 µM | [13] > 100 µM | [15] > 100 µM | [18] > 100 µM

COC(=O)C1=C(C)N(NC(=O)c2cccc(Cl)c2)C(C)(O)C12CCOC2=O (centres undefined)
inactive: [1] > 100 µM | [20] > 100 µM | [4] > 100 µM | [5] > 100 µM | [6] > 100 µM | [7] > 100 µM | [9] > 100 µM | [10] > 100 µM | [12] > 100 µM | [13] > 100 µM | [15] > 100 µM | [17] > 100 µM | [18] > 100 µM

CCCCCCCCCCCCCCCCC(C(=O)O)C(O)(CC(=O)O)C(=O)O (centres undefined)
inactive: [1] 23.9 µM | [2] 29 µM | [3] 18.7 µM | [4] 22.6 µM | [5] 40.6 µM | [6] 17.7 µM | [7] 17.5 µM | [8] 34.8 µM | [9] 21.2 µM | [10] 19.7 µM | [11] 22.1 µM | [12] 26.5 µM | [13] 39.1 µM | [14] 35.6 µM | [15] 19.1 µM | [16] 47 µM | [17] 21 µM | [18] 34.1 µM | [19] 57 µM
